In patent US8084481B2, “Substituted arylimidazolone and triazolone as inhibitors of vasopressin receptors” (Bayer Pharma Aktiengesellschaft, priority 2006, dated 2011) one finds IC50 data, which are given here for four molecules.

For one assay, the target named is T1, human V1a receptor (Homo sapiens, UniProt P37288).
T1 construct: expressed in transfected cells; host or cells: CHO K1 (ATCC), constitutively expressing a modified aequorin
Put plainly: Cellular in vitro test for determination of the vasopressin receptor activity (aequorin luminescence, CHO cells), human V1a. The conditions noted are these: cell line transfected with the human V1a receptor, antagonism of [Arg8]-vasopressin, read-out: IC50 hV1a. Format: cell-based. From the text:
(§1) B-1. Cellular In Vitro Test for Determination of the Vasopressin Receptor Activity
(§2) The identification of agonists and antagonists of the V1a- and V2-vasopressin receptors in man and the rat and the quantification of the activity of the compounds according to the invention are effected by means of recombinant cell lines. These cells are originally derived from the ovarian epithelial cells of the hamster (Chinese Hamster Ovary, CHO K1, ATCC: American Type Culture Collection, Manassas, Va. 20108, USA). The test cell lines constitutively express a modified form of the calcium-sensitive photoprotein aequorin, which after reconstitution with the cofactor coelenterazine emits light on an increase in the free calcium concentrations [Rizzuto R, Simpson A W, Brini M, Pozzan T, Nature 358, 325-327 (1992)]. In addition, the cells are stably transfected with human or rat V1a- or V2 receptors. In the case of the Gs-coupled V2 receptors, the cells are stably transfected with a further gene which codes for the promiscuous Gα16-Protein [Amatruda T T, Steele D A, Slepak V Z, Simon M I, Proceedings of the National Academy of Science USA 88, 5587-5591 (1991)]. The resulting vasopressin receptor test cells react to stimulation of the recombinantly expressed vasopressin receptors with an intracellular release of calcium ions, which can be quantified by the resulting aequorin luminescence with a suitable luminometer [Milligan G, Marshall F, Rees S, Trends in Pharmacological Sciences 17, 235-237 (1996)].
(§3) On the day before the text, the cells are plated out in culture medium (DMEM, 10% FCS, 2 mM glutamine, 10 mM HEPES) in 384-well microtitre plates and kept in a cell incubator (96% atmospheric humidity, 5% v/v CO2, 37° C.). On the test day, the culture medium is replaced by a Tyrode solution (140 mM NaCl, 5 mM KCl, 1 mM MgCl2, 2 mM CaCl2, 20 mM glucose, 20 mM HEPES) which in addition contains the cofactor coelenterazine (50 μM), and the microtitre plate is then incubated for a further 3-4 hours. The test substances in various concentrations are placed beforehand in the wells of the microtitre plate for 10 to 20 minutes, before the agonist [Arg^8]-vasopressin is added and the resulting light signal immediately measured in the luminometer. The IC50 values are calculated by means of the computer program GraphPad PRISM (Version 3.02).

For the next assay, the target named is T2, human V2 receptor (Homo sapiens, UniProt P30518).
T2 construct: expressed in transfected cells; host or cells: CHO K1 (ATCC), constitutively expressing a modified aequorin and stably co-transfected with promiscuous G-alpha-16
Nature of the assay: Cellular in vitro test for determination of the vasopressin receptor activity (aequorin luminescence, CHO cells), human V2. The format is cell-based. The conditions noted are these: cell line transfected with the human V2 receptor, antagonism of [Arg8]-vasopressin, read-out: IC50 hV2.
Source text: as §1, §2, §3

T2 sequence (P30518 whole entry): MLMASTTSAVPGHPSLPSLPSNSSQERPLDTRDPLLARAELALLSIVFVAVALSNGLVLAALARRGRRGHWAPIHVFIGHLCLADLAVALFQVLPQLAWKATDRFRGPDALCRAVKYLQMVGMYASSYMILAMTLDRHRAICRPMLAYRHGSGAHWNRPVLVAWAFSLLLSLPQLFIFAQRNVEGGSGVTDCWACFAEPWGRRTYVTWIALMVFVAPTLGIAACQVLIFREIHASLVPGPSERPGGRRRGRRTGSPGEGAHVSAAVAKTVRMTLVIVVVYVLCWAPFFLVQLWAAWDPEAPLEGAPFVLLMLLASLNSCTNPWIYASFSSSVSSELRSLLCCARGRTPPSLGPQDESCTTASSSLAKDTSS
T1 sequence (P37288 whole entry): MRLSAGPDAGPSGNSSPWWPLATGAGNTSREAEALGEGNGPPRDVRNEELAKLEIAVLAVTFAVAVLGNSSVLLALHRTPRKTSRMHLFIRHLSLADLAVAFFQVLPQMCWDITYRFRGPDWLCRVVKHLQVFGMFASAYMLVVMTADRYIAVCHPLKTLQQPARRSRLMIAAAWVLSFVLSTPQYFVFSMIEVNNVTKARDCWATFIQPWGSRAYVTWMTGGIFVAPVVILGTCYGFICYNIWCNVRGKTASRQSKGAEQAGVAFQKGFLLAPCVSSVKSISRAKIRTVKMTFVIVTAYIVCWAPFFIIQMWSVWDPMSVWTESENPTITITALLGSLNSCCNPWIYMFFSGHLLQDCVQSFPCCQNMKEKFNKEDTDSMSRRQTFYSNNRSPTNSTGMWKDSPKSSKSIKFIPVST

The IC50 is the concentration needed to halve the response being measured. `CCOC(=O)Cn1c(-c2ccc(Cl)cc2)nn(CC(=O)NCCc2ccccc2C(F)(F)F)c1=O` [Example 439]: the IC50 was determined as 58 nM at human V1a receptor and 77 nM at human V2 receptor.

`Cc1c(-c2ccc(Cl)cc2)n(C2CC2)c(=O)n1CC(=O)N[C@@H](C)c1cccc2ccccc12` [Example 207]: the 50% inhibitory concentration (IC50) at human V1a receptor came to 230 nM; at human V2 receptor it was 63 nM.

Consider `CN(C)C(=O)c1cccc(Cn2c(-c3ccc(Cl)cc3)nn(CC(=O)NC(C)(C)c3cccc(C(F)(F)F)c3)c2=O)c1` [Example 475, 3-(3-(4-chlorophenyl)-1-[2-(1-methyl-1-[3-(trifluoromethyl)phenyl]ethylamino)-2-oxoethyl]-5-oxo-1,5-dihydro-4H-1,2,4-triazol-4-ylmethyl)-N,N-dimethylbenzamide], for which the IC50 on human V1a receptor worked out at 328 nM; on human V2 receptor, 20 nM.

For `COc1cc(Cl)ccc1-c1nn(CC(=O)NC(C)(C)c2cccc(C(F)(F)F)c2)c(=O)n1Cc1ccccc1F` [Example 216, 2-[3-(4-chloro-2-methoxyphenyl)-4-(2-fluorobenzyl)-5-oxo-4,5-dihydro-1H-1,2,4-triazol-1-yl]-N-[1-methyl-1-(3-trifluoromethyl-phenyl)ethyl]-acetamide], the results for the IC50 on human V1a receptor and at human V2 receptor were 73 nM and 6 nM, respectively.
